Publication PMC6749073 (Frontiers in Pharmacology, 2019)

Key:
[1] = Body weight and tolerability of A549 and H292 xenograft mice; type: in vivo
Method: (§3) Cells in logarithmic growth were washed with PBS and suspended in serum-free medium. Portions of the suspension (5 × 10^6 cells in 0.1 ml/mouse) were mixed at a 3:1 ratio with Matrigel basement membrane matrix and injected subcutaneously into the mice. Following 2 weeks of growth, tumor tissues were cut into multiple 2 × 2 × 2 mm^3 pieces and implanted using a range trocar subcutaneously (s.c. injection) into the left forepaw armpit of each mouse ([Jiang et al., 2017]). Treatment with pharmacology was started when the tumors reached an average volume of 100–200 mm^3. The mice were randomly divided into six groups (n = 14/group).
(§4) Body weight and tumor size were assessed every 3 days. Tumor size was measured using a caliper, the volumes were calculated according to the following standard formula: V = (L × W^2)/2 (V = tumor volume, L = largest diameter of tumor, W = smallest diameter of tumor). On day 25, all mice were sacrificed by cervical dislocation, and the tumors were removed and weighed.

rats = test: Renal pathology (H&E) in rats; type: in vivo; details: 7.5, 15, and 30 mg/kg twice a week for 4 weeks
Method: Total 30 rats were employed in the experiments, 20 rats were euthanized with isoflurane 3 days after the last administration, and the kidneys were excised and examined by the H&E staining, and the remaining 10 rats were handled after the recovery period (two weeks after the last administration). We found drug-related renal changes were appeared in the rats, especially in the high dose group (30 mg/kg). Of all the changes, the renal tubular epithelium denaturation/regeneration and tubular dilation are the most obvious, which are early appeared after 7.5 mg/kg treatment at both last administration and during recovery period.

H1299 = test: MTT cell viability assay, H1299; type: cell-based, human; details: 48 h
Method: (§1) Cells were seeded at a density of 1 × 10^4 cells per well in 96-well plates. The following day, these cells were washed with PBS and exposed to different concentrations of testing compounds in culture medium for 48 h. MTT solution (10 μl at 5 mg/ml) was added to each well. After 4 h of incubation at 37°C, the medium was removed, and the insoluble precipitate was dissolved in 100 μl DMSO (Sigma, St. Louis, MO, USA). The absorbance of the dissolved solution at 490 nm was measured using a microplate reader (TECAN A-5082; Megllan, Austria). Cell viability percentages were calculated by dividing the mean optical density (OD) of compound-containing wells by that of the control wells. Each experiment was replicated three times. The IC50 of testing drugs was calculated with Statistical Product and Service Solutions software (SPSS, version 16.0).

[2] = test system: VEGF, p53, and Bax expression in the xenograft A549 and H292 lung tumor tissue; test: Immunohistochemistry of xenograft tumor sections; type: in vivo, mice
Method: All tumor tissues were harvested and fixed in 4% buffered formalin. After 72 h, tumor tissues were embedded in paraffin and cut into 4 μm sections for immunohistochemistry assays. The streptavidin–biotin complex (SABC) method was used for immunohistochemical staining. Lung tissue sections from mice with no intervention were used as controls. The section slides were baked in an oven at 60°C for 1 h, washed in xylene, and hydrated in different concentrations of alcohol. Subsequently, endogenous peroxidase activity was quenched with 3% hydrogen peroxide for 10 min. To unmask the antigen, the slides were submerged in citrate buffer (0.01 M, pH 6.0) at 95°C for 5 min. The slides were blocked for 20 min with normal goat serum blocking solution. Primary antibodies were incubated at 4°C overnight. Primary antibody dilutions were as follows: 1:200 for VEGF, p53, and Bax. Immunocomplexes were visualized with 3,3′-diaminobenzidine (DAB), and the density was measured with the DP2-BSW software (Olympus, Tokyo, Japan).

[3] = test system: A549, NCI-H292, NCI-H460, and LTEP-A-2 xenograft models; test: ED50 (50% reduction of xenograft tumor volume) in nude mice; type: in vivo; details: dose reducing xenograft tumor volume by 50%; average over A549, NCI-H292, NCI-H460, and LTEP-A-2 xenograft models
Method: After injection, the animals’ condition was monitored every day for over 1 week by an observer who was blinded to the dose and drug allocation.
Estimates for ED50 and LD50 were calculated through nonlinear regression, data were fitted to a sigmoidal dose-response relationship in Prism (version 4.0a; GraphPad Software, Inc., San Diego, CA). The data were fitted to the equation:
Y=Ymin+Ymax−Ymin/1+10^(LogED50−X)∗HillSlope
where X is the logarithm of concentration, and Y is the response.

H292 xenograft tumor = H292 xenograft tumor growth in nude mice; type: in vivo; details: 120 mg/kg, tail vein every 3 days
Method: as §3, §4

ICR mice = test: General neurotoxicity observation in ICR mice; type: in vivo; details: i.v.
Text: The animals were observed daily for any evident symptoms of sickness. Changes in their appearance (e.g., kyphosis and altered grooming), behavior (altered nesting) and activity (altered exploring) were monitored for general neurotoxicity assessment.

[4] = Pharmacokinetic and toxicokinetic characterization in Beagle dogs; type: in vivo; details: single dose 10, 20, 40 mg/kg
Text: Furthermore, AI was employed to evaluate the accumulated toxicity of the two complexes.

H460 = test: MTT cell viability assay, H460; type: cell-based, human; details: 48 h
Method: as §1

H1650 = test: MTT cell viability assay, H1650; type: cell-based, human; details: 48 h
Method: as §1

A549 = test: MTT cell viability assay, A549; type: cell-based, human; details: 48 h
Method: as §1

A549 cells = test: Cell cycle by PI flow cytometry, A549; type: cell-based, human; details: diplatin 50 μM, DDP 5 μM, CBP 100 μM
Method: (§2) Then, the cells were trypsinized, washed with PBS, and fixed in 1.5 ml 95% ethanol and left at 4°C overnight. They were then incubated with RNase and stained with propidium iodide (PI) (Multi Sciences Biotech Co., Ltd). PI absorbance was determined using a Cytomics FC500 Flow Cytometer (Beckman Coulter, USA).

HCC827 = test: MTT cell viability assay, HCC827; type: cell-based, human; details: 48 h
Method: as §1

[5] = test system: JNK, Erk1/2 and p38 phosphorylation in A549 and H292 cells; test: Western blot of MAPK phosphorylation (JNK, Erk1/2, p38); type: cell-based, human
Method: Cells were treated with diplatin, DDP, and CBP before being lysed. After centrifugation at 12,000 rpm for 10 min, an equal amount of protein from each group was subjected to electrophoresis on 10% SDS-PAGE gels. The proteins in the gel were then electroblotted onto polyvinylidene fluoride (PVDF) membranes (Millipore, Massachusetts, USA). After incubation in the blocking buffer (1× TBS, 0.1% Tween-20, and 5% w/v dry nonfat milk) for 1 h at room temperature, the membranes were incubated with the primary antibody at 4°C overnight. Next, membranes were rinsed with TBST, and then secondary antibodies were applied (LI-COR, USA) at room temperature for 1 h. Immunoreactive bands were visualized by a two-color infrared imaging system (Odyssey, LI-COR, USA).

A549 xenograft tumors = test: A549 xenograft tumor growth in nude mice; type: in vivo; details: 30, 60, 120 mg/kg, tail vein every 3 days
Method: as §3, §4

LTEP-A-2 cells = test: Cell cycle by PI flow cytometry, LTEP-A-2; type: cell-based, human; details: diplatin 50 µM, DDP 5 µM, CBP 100 µM
Method: as §2

[6] = test system: BEAS-2B normal human lung epithelial cell line; test: MTT cell viability assay, BEAS-2B; type: cell-based
Method: as §1

CCN(CC)CCCCC1C(=O)[O][Pt][O]C1=O.N[C@@H]1CCCC[C@H]1N.O=P(O)(O)O [Diplatin]
effect on body weight ([1]; diplatin 30 mg/kg and 60 mg/kg): no observable effects
reduction of body weight by day 25 ([1]; diplatin 120 mg/kg, CBP 60 mg/kg, every 3 days i.v.): 14.38%
renal pathology in rats (rats): nephrotoxicity
IC50 (H1299): 57.5 µM
VEGF expression in tumor sections compared to the control ([2]; 120 mg/kg): lower expression of VEGF
p53 and Bax expression in the A549 and H292 tumor sections ([2]; 120 mg/kg): significantly enhanced
effect on p53 expression in tumor sections compared with DDP and CBP treatment ([2]; diplatin 120 mg/kg vs DDP and CBP): nearly two-fold more potent
Mice ED50 [3]: 52.0 mg/kg
inhibition of H292 xenograft tumor growth (H292 xenograft tumor): 65.0%
animals showing signs of mild kyphosis and piloerection (ICR mice; 240 mg/kg twice a week for 4 weeks): approximately 20%
changes in behavior (altered nesting) and activity (altered exploring) (ICR mice; 60, 120, or 240 mg/kg twice a week for 4 weeks): no notable changes
time of maximum platinum levels in the plasma [4]: 0.33 h
IC50 (H460): 40.7 µM
IC50 (H1650): 36.6 µM
IC50 (A549): 102 µM
effect on cell cycle distribution (A549 cells): significant accumulation of cells in G2/M phase
IC50 (HCC827): 25 µM
concentration of apparent maximum JNK phosphorylation ([5]; 0.5 h exposure): 25 µM
Erk1/2 and p38 phosphorylation ([5]; diplatin 10, 25, 50 μM, DDP 5 μM, CBP 100 μM): failed to induce Erk1/2 and p38 phosphorylation
JNK phosphorylation levels ([5]; diplatin 10–50 μM, DDP 10 μM, 0.5 h): elevated
effect on growth of A549 xenograft tumors (A549 xenograft tumors): dose-dependently inhibited the growth
effect on cell cycle distribution (LTEP-A-2 cells): significant accumulation of cells in G2/M phase
IC50 ([6]; BEAS-2B normal lung epithelial cells, MTT, 48 h): 47.9 µM
suppression of the viability of BEAS-2B cells compared to DDP ([6]; vs DDP): threefold less suppression
